Source: US6635641B2 (Agouron Pharmaceuticals, Inc., priority 2000, dated 2003)

Biological target: T1, phosphorylated VEGF-R2Δ50 (Homo sapiens, UniProt P35968, DEL940-989/E990V)
T1 construct: VEGF-R2Δ50 contains residues 806-939 and 990-1171; made in house; host or cells: baculovirus/insect cells
Assay: VEGF-R2 ELISA assay (phosphogastrin formation)
Assay type: biochemical
Conditions: @ 10 μM (ELISA); read-out: FLVK-P percent inhibition (ELISA)
Text: A construct (VEGF-R2Δ50) of the cytosolic domain of human vascular endothelial growth factor receptor 2 (VEGF-R2) lacking the 50 central residues of the 68 residues of the kinase insert domain was expressed in a baculovirus/insect cell system. Of the 1356 residues of full-length VEGF-R2, VEGF-R2Δ50 contains residues 806-939 and 990-1171, and also one point mutation (E990V) within the kinase insert domain relative to wild-type VEGF-R2. See commonly assigned, co-pending U.S. patent application Ser. No. 09/390,326, filed Sep. 7, 1999, incorporated by reference herein, for discussion of VEGF constructs and expression systems. Autophosphorylation of the purified construct was performed by incubation of the enzyme at a concentration of 4 μM in the presence of 3 mM ATP and 40 mM MgCl2 in 100 mM Hepes, pH 7.5, containing 5% glycerol and 5 mM DTT, at 4° C. for 2 h. […]
Formation of phosphogastrin was monitored using biotinylated gastrin peptide (1-17) as substrate. […] The activity of horseradish peroxidase was monitored using 2,2′-azino-di-[3-ethylbenzathiazoline sulfonate(6)] diammonium salt (ABTS). […] The horseradish peroxidase reaction was quenched by addition of acid (H2SO4), followed by absorbance reading at 405 nm. Ki values were determined by measuring enzyme activity in the presence of varying concentrations of test compounds. The data were analyzed using Enzyme Kinetic and Kaleidagraph software.

T1 sequence (P35968 with tags, fused parts or gaps DEL940-989/E990V limits assumed): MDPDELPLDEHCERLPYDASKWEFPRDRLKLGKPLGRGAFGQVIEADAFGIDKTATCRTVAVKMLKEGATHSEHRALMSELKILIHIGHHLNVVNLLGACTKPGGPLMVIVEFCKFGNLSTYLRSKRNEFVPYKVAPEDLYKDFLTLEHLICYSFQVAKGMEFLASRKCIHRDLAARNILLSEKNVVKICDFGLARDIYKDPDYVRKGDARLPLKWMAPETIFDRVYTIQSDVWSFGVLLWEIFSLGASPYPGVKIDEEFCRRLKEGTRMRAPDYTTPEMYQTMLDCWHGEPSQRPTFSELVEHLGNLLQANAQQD

O=C(NCc1ccc2c(c1)OCO2)c1cccc(CSc2ncnc3[nH]ncc23)c1 [Example B-6, N-(1,3-Benzodioxyl-5-ylmethyl)-3-[(1H-pyrazolo[3,4-d]pyrimidin-4-yl)sulfanylmethyl]benzamide]
inhibition at 10 µM: 62%
